The results in this text go back to patent US20250091989A1, “SMALL MOLECULE PROTEIN SYNTHESIS MODULATORS” (Interdict Bio, Inc., priority 2023, published 2025).

Some results are limits rather than exact numbers.

Common to all, as to format: biochemical
What all share (conditions): HeLa S3 lysate, sfGFP/mCherry ratio, 2 hrs at 30° C.

In assay [1] the test system is ALK. In words: In vitro transcription-translation (IVTT) reporter assay, ALK test sequence. The source says: (§1) All reporter constructs have been cloned into the pT7CFE1-CHis plasmid (ThermoFisher #88860) using Gibson assembly procedures (NEB #E2611L). The parental pT7CFE1-CHis plasmid contains an EMCV IRES at the 5′UTR for translation initiation, a multiple-cloning site (MCS) for gene insertion, an optional C-terminal His-epitope tag, and polyA sequence in the 3′UTR to regulate mRNA stability. All reporters are designed to be inserted at the MCS to include a red fluorescent protein (mCherry), P2A self-cleaving peptide which releases the preceding mCherry protein product, and a fusion open reading frame containing a 3×FLAG epitope, a peptide sequence of interest (TEST), and green fluorescent protein (sfGFP).
(§2) Construct Plasmid Preparation: All plasmids are isolated from MACH1 cells (ThermoFisher) grown overnight in ampicillin-containing luria broth, and purified using ZymoPure Express Plasmid Midiprep Kit (Zymo Research). Constructs are sequenced verified and diluted to a working concentration of 110 ng/μL.
(§3) HeLa S3 Lysate Preparation: HeLa S3 cell pellets are acquired from Ipracell/Ipratech (Belgium) and shipped as 4 mL frozen cell pellets on dry ice for storage at −80° C. until use. The procedure for lysate preparation is as follows. Prepare 1× Lysis Buffer, cold and stored on ice:
(§4) Each preparation takes 8 cell pellets (4 ml packed volume each, approximately 1.0×10^9 cells per pellet). Thaw cell pellets from −80° C. on ice for 90 mins. Lay pellets horizontally on top of the ice and rotate every 30 mins to ensure even thawing. Once thawed, add 4 mL of cold lysis buffer to each pellet, and using a serological pipet, gently pipet up and down to break up clumps. Incubate resuspended cells in ice for an additional 30 mins (plunged into ice). During 30 min incubation, rinse and RNase-zap (Ambion) glass dounces (use loose pestle “A”), gently dry and place on ice until needed. Prepare RNase-free Eppendorf tubes for spinning and for batch storage. Add batch labels to 1.5-1.7 mL RNase-free microcentrifuge tubes (labeling scheme below). Each batch will have an extra 1.5-1.7 mL RNase-free microcentrifuge tube for 40 μL of lysate, label the top of this tube (labeling scheme below). After 30 min incubation, transfer all 8 mL of cell pellet to dounce. Cell lysis is complete after douncing 100 times. Aliquot cell lysis into 1.5-1.7 mL temporary-microcentrifuge tubes. Place tubes in centrifuge with “fins” out, and spin at 1,200 xg for 5 mins. After the first spin use a 1 mL pipet to resuspend each tube and repeat spin. This acts as an additional lysis step, is more vigorous and increases lysate yield. During second spin get liquid N2 and a fresh conical tube on ice.
(§5) After spin is complete, transfer supernatant (lysate) from microcentrifuge tubes into the 50 mL conical tube and keep on ice. Repeat steps 10-14 for all other cell pellets until completed. Once all cell lysate has been transferred to the 50 mL conical tube pipet to mix so the solution is homogenous. Transfer 1 mL of lysate into batch-labeled microcentrifuge tubes and flash freeze in liquid nitrogen. Be sure to pipet up and down to mix throughout transfer step. Place all tubes in the […] for long-term storage.
(§6) In vitro transcription-translation assay setup: Each assay includes a master mix containing lysate and shared components, a 96-well plate containing compound titrations for testing, a 96-well DNA plate with reporter constructs to be tested, 96-well skirted PCR plates, and 96-well flat-bottom, black, fluorescent assay plates. […]

Assay [2] relates to KRAS G12D. In words: In vitro transcription-translation (IVTT) reporter assay, KRAS G12D test sequence.
Source text: as §1, §2, §3, §4, §5, §6

Assay [3] relates to MYC. Nature of the assay: In vitro transcription-translation (IVTT) reporter assay, MYC test sequence.
Source text: as §1, §2, §3, §4, §5, §6

For `COc1ccc(C[C@H]2NC[C@H](O)[C@H]2OC(=O)CC2CC2)cc1` [V0113, (2R,3S,4S)-4-hydroxy-2-[(4-methoxyphenyl)methyl]pyrrolidin-3-yl 2-cyclopropylacetate], the half-inhibitory concentration (IC50) in assay [1], in assay [2] and in assay [3] was less than 10 µM each time.

For `COc1ccc(C[C@H]2NC[C@H](O)[C@H]2OC(=O)CC[C@@H]2NC(=O)CNC2=O)cc1` [V000144, (2R,3S,4S)-4-hydroxy-2-[(4-methoxyphenyl)methyl]pyrrolidine-3-yl 3-[(2S)-3,6-dioxopiperazin-2-yl]propanoate], the values for the IC50 in assay [1], in assay [2] and in assay [3] were less than 10 µM, more than 30 µM and less than 10 µM, respectively.

For `COc1ccc(C[C@H]2NC[C@H](O)[C@H]2OC(=O)c2ccc3onc(N)c3c2)cc1` [V000148, (2R,3S,4S)-4-hydroxy-2-[(4-methoxyphenyl)methyl]pyrrolidin-3-yl 3-amino-1,2-benzoxazole-5-carboxylate], the IC50 in assay [1], in assay [2] and in assay [3] was more than 30 µM throughout.

As to `COc1ccc(C[C@H]2NC[C@H](O)[C@H]2OC(=O)C2CN(Cc3ccccc3)C2)cc1` [V000173, (2R,3S,4S)-4-hydroxy-2-[(4-methoxyphenyl)methyl]pyrrolidin-3-yl 1-benzylazetidine-3-carboxylate], the IC50 in assay [1], in assay [2] and in assay [3] was more than 30 µM throughout.

Consider `COc1ccc(C[C@H]2NC[C@H](O)[C@H]2OC(=O)C2(OCc3ccccc3)CNC2)cc1` [V000192, (2R,3S,4S)-4-hydroxy-2-(4-methoxybenzyl) pyrrolidin-3-yl 3-(benzyloxy)azetidine-3-carboxylate], for which the IC50 in assay [1], in assay [2] and in assay [3] was more than 30 µM each time.

Turning to `COc1ccc(C[C@H]2NC[C@H](O)[C@H]2OC(=O)c2ccc(S(=O)(=O)N(C)C)cc2)cc1` [V000198, (2R,3S,4S)-4-hydroxy-2-[(4-methoxyphenyl)methyl]pyrrolidin-3-yl 4-(dimethylsulfamoyl)benzoate], the IC50 in assay [1], in assay [2] and in assay [3] was more than 30 µM throughout.

As for `COc1ccc(C[C@H]2NC[C@H](O)[C@H]2OC(=O)CNc2c(N)c(=O)c2=O)cc1` [V000215, (2R,3S,4S)-4-hydroxy-2-[(4-methoxyphenyl)methyl]pyrrolidin-3-yl 2-[(2-amino-3,4-dioxocyclobut-1-en-1-yl)amino]acetate], the half-maximal inhibitory concentration (IC50) in assay [1], in assay [2] and in assay [3] was less than 10 µM throughout.

On to `COc1ccc(C[C@H]2NC[C@H](O)[C@H]2OC(=O)C2CCS(=N)(=O)CC2)cc1` (stereo partly drawn) [V186712, (2R,3S,4S)-4-hydroxy-2-[(4-methoxyphenyl)methyl]pyrrolidin-3-yl (1 s)-1-imino-1-oxo-1lambda6-thiane-4-carboxylate], for which the IC50 in assay [1], in assay [2] and in assay [3] was more than 30 µM throughout.

Consider `COc1ccc(C[C@H]2NC[C@H](O)[C@H]2OC(=O)CN)cc1` [V186760, (2R,3S,4S)-4-hydroxy-2-[(4-methoxyphenyl)methyl]pyrrolidin-3-yl 2-aminoacetate], for which the IC50 is less than 10 µM in assay [1], 20 to 30 µM in assay [2] and less than 10 µM in assay [3].

As for `COc1ccc(C[C@H]2NC[C@H](O)[C@H]2OC(=O)C2CCOC2)cc1` (stereo partly drawn) [V186761, (2R,3S,4S)-4-hydroxy-2-[(4-methoxyphenyl)methyl]pyrrolidin-3-yl oxolane-3-carboxylate], the 50% inhibitory concentration (IC50) in assay [1] was less than 10 µM; in assay [2] it was more than 30 µM; in assay [3], less than 10 µM.

With `COc1ccc(C[C@H]2NC[C@H](O)[C@H]2OC(=O)C2CN(CC3COC3)C2)cc1` [V186772, (2R,3S,4S)-4-hydroxy-2-[(4-methoxyphenyl)methyl]pyrrolidin-3-yl 1-(oxetan-3-ylmethyl)azetidine-3-carboxylate], the IC50 in assay [1], in assay [2] and in assay [3] was more than 30 µM throughout.

Take `COc1ccc(C[C@H]2NC[C@H](O)[C@H]2OC(=O)C2CC(F)(F)C2)cc1` [V186775, (2R,3S,4S)-4-hydroxy-2-[(4-methoxyphenyl)methyl]pyrrolidin-3-yl 3,3-difluorocyclobutane-1-carboxylate]: the half-inhibitory concentration (IC50) in assay [1] was less than 10 µM; in assay [2], 20 to 30 µM; in assay [3], less than 10 µM.

As for `COc1ccc(C[C@H]2NC[C@H](O)[C@H]2OC(=O)CCCCC(C)C)cc1` [V186779], the IC50 in assay [1], in assay [2] and in assay [3] was less than 10 µM in each case.

Consider `CCC1(C(=O)O[C@@H]2[C@@H](O)CN[C@@H]2Cc2ccc(OC)cc2)COC1` [V186781, (2R,3S,4S)-4-hydroxy-2-[(4-methoxyphenyl)methyl]pyrrolidin-3-yl 3-ethyloxetane-3-carboxylate], for which the IC50 in assay [1], in assay [2] and in assay [3] was more than 30 µM each time.

`COCCOCC(=O)O[C@@H]1[C@@H](O)CN[C@@H]1Cc1ccc(OC)cc1` [V186783]: the IC50 in assay [1], in assay [2] and in assay [3] was less than 10 µM throughout.

For `COc1ccc(C[C@H]2NC[C@H](O)[C@H]2OC(=O)CC(C)(C)O)cc1` [V186784, (2R,3S,4S)-4-hydroxy-2-[(4-methoxyphenyl)methyl]pyrrolidin-3-yl 3-hydroxy-3-methylbutanoate], the values for the IC50 in assay [1], in assay [2] and in assay [3] were less than 10 µM, 10 to 20 µM and less than 10 µM, respectively.

As for `COc1ccc(C[C@H]2NC[C@H](O)[C@H]2OC(=O)C(C)(C)O)cc1` [V186785, (2R,3S,4S)-4-hydroxy-2-[(4-methoxyphenyl)methyl]pyrrolidin-3-yl 2-hydroxy-2-methylpropanoate], the 50% inhibitory concentration (IC50) in assay [1] was less than 10 µM; in assay [2] it was more than 30 µM; in assay [3], more than 30 µM.

Take `CC(=O)O[C@@H]1[C@@H](O)CN[C@@H]1Cc1ccccc1` [V186810, (2R,3S,4S)-2-benzyl-4-hydroxy pyrrolidin-3-yl acetate]: the half-maximal inhibitory concentration (IC50) in assay [1], in assay [2] and in assay [3] was less than 10 µM throughout.

In the case of `COc1ccc(C[C@H]2NC[C@H](O)[C@H]2OC(=O)[C@H]2CCCO2)cc1` [V186824, (2R,3S,4S)-4-hydroxy-2-[(4-methoxyphenyl)methyl]pyrrolidin-3-yl (2R)-oxolane-2-carboxylate], the IC50 in assay [1] is less than 10 µM; in assay [2], more than 30 µM; in assay [3], more than 30 µM.

Turning to `COc1ccc(C[C@H]2NC[C@H](O)[C@H]2OC(=O)[C@@H]2CCCO2)cc1` [V186825, (2R,3S,4S)-4-hydroxy-2-[(4-methoxyphenyl)methyl]pyrrolidin-3-yl (2S)-oxolane-2-carboxylate], the half-inhibitory concentration (IC50) in assay [1], in assay [2] and in assay [3] was less than 10 µM each time.

`COc1ccc(C[C@H]2NC[C@H](O)[C@H]2OC(=O)CCN2CC(=O)NCC2=O)cc1` [V186849, (2R,3S,4S)-4-hydroxy-2-[(4-methoxyphenyl)methyl]pyrrolidin-3-yl 3-(2,5-dioxopiperazin-1-yl)propanoate]: the half-inhibitory concentration (IC50) was less than 10 µM in assay [1], more than 30 µM in assay [2] and 10 to 20 µM in assay [3].

Consider `COc1ccc(C[C@H]2NC[C@H](O)[C@H]2OC(=O)CCN2CC(=O)N(C)CC2=O)cc1` [V186850], for which the half-inhibitory concentration (IC50) in assay [1] is 20 to 30 µM; in assay [2], more than 30 µM; in assay [3], more than 30 µM.
